Key:
VIM-1 = VIM-1 (Pseudomonas aeruginosa (strain ATCC 15692 / DSM 22644 / CIP 104116 / JCM 14847 / LMG 12228 / 1C / PRS 101 / PAO1), UniProt A0A0F7KYQ8); test: biochemical; settings: VIM-1 IC50, fluorescence assay, CCF2-FA substrate, 30 pM enzyme, 2 hours at 25° C.
Procedure: (§1) Enzyme Activity: Determination of IC50
(§2) The Class B enzyme activities were measured in the presence of the test inhibitor in a fluorescence assay against a commercially available substrate consisting of a cephalosporin core linking 7-hydroxycoumarin to fluorescein (CCF2-FA). […] In a 384-well microplate, the test inhibitor was incubated with the metallo-β-lactamase enzyme and the substrate for 2 hours at 25° C. […] The IC50 value was determined from semi-logarithmic plots of enzyme inhibition versus inhibitor concentration, with a curve generated using a 4-parameter fit.

[1] = tested on: Pseudomonas aeruginosa efflux− (MB9799), IMP-1; type: cell-based; settings: C, D serine β-lactamase inhibitor closely related to relebactam; for P. aeruginosa expressing IMP-1, efflux − (MB9799) MITC95: concentration restoring susceptibility to imipenem at 2 μg/mL in the presence of a class A; for Concentration of metallo-β-lactamase inhibitor which restores susceptibility of efflux − (MB9799) strain to imipenem: imipenem at 2 μg/mL, in the presence of a class A
Source text: (§3) The strain background was Pseudomonas aeruginosa PAO1.
(§4) The strain set was then used as a pair to determine the effect of metallo-β-lactamase inhibitors of Formula I on the MIC of imipenem and/or ceftazidime. A fixed concentration of antibiotic was included in standard microbroth MIC tests, usually at the CLSI (Clinical and Laboratory Standards Institute) breakpoint concentration. A fixed amount of a class A/C beta-lactamase inhibitor was also included to inhibit the resident Pseudomonas AmpC enzyme. A serial titration of the metallo-β-lactamase inhibitor was included and the concentration of metallo-β-lactamase inhibitor which restores susceptibility of the strain to the included antibiotic was recorded. That concentration of metallo-β-lactamase inhibitor was then compared between the two strains to determine the fold difference between the efflux+ (MB9798) and efflux− (MB9799) strains. This was taken as an indication of the extent to which the MBLi is subject to efflux.

[2] = tested on: Serratia marcescens expressing IMP-1 (CL5741); type: cell-based; settings: for Serratia marcescens MITC95: IMP-1 strain CL5741, with imipenem 1 μg/ml, 95% inhibition of growth; for Serratia marcescens expressing IMP-1 (CL5741) MITC95: with imipenem 1 μg/ml, 95% inhibition of bacterial growth
Procedure: (§5) Antibiotic Potentiation Activity: Determination of Synergistic Concentration
(§6) The bacterial strains tested included the clinical strains Escherichia coli expressing NDM-1 (CLB30005, CLB30016), Serratia marcescens expressing IMP-1 (CL5741), and Klebsiella pneumoniae expressing VIM-1 (IHMA599644). Inhibitor activity was measured in the presence and absence of imipenem in a 384-well microplate.
(§7) The clinical strains CLB30016, CL5741 and IHMA599644 were grown on trypticase soy agar containing 5% sheep's blood. The bacteria on agar plates were incubated at 35° C. with humidity overnight. The following day, individual colonies from each clinical strain were picked and resuspended in 5 ml saline to attain an OD600 of […], for CLB30016, CL5741 and IHMA599644, respectively. These were further diluted 1:100 into 1.1×CAMHB and used to inoculate the test wells as described below.
(§8) Imipenem in 10 mM 3-(N-morpholino)propanesulfonic acid (MOPS, pH 7) was stored in single use aliquots at −80° C. […] On the day of the assay, 4 μl of antibiotic was added to 45 ul of bacteria followed by 1 μl of test compound and mixed by pipetting and with an orbital shaker. The concentration of antibiotic used in the assay was 1 μg/ml. Microplates were covered and incubated at 35° C. for 22 hours to 24 hours. At the end of the incubation, absorbance was determined using a spectrophotometer.

[3] = tested on: Escherichia coli expressing NDM-1 (CLB30005, CLB30016); type: cell-based; settings: with imipenem 1 μg/ml; for Escherichia coli MITC95: NDM-1 strain, 95% inhibition of growth; for Escherichia coli expressing NDM-1 (CLB30016) MITC95: 95% inhibition of bacterial growth
Procedure: as §5, §6, §7, §8

[4] = tested on: Klebsiella pneumoniae expressing VIM-1 (IHMA599644); type: cell-based; settings: for Klebsiella pneumoniae MITC95: VIM-1 strain IHMA599644, with imipenem 1 μg/ml, 95% inhibition of growth; for Klebsiella pneumoniae expressing VIM-1 (IHMA599644) MITC95: with imipenem 1 μg/ml, 95% inhibition of bacterial growth
Procedure: as §5, §6, §7, §8

[5] = tested on: Pseudomonas aeruginosa efflux+ (MB9798), IMP-1; type: cell-based; set-up: Concentration of metallo-β-lactamase inhibitor which restores susceptibility of efflux + (MB9798) strain to imipenem: unit not given here; settings: C, D serine β-lactamase inhibitor closely related to relebactam; for P. aeruginosa expressing IMP-1, efflux + (MB9798) MITC95: concentration restoring susceptibility to imipenem at 2 μg/mL in the presence of a class A; for Concentration of metallo-β-lactamase inhibitor which restores susceptibility of efflux + (MB9798) strain to imipenem: imipenem at 2 μg/mL, in the presence of a class A
Source text: as §3, §4

NDM-1 = NDM-1 (Klebsiella pneumoniae, UniProt C7C422); test: biochemical; type: biochemical; settings: fluorescence assay, CCF2-FA substrate, 1 pM enzyme, 2 hours at 25° C.; read-out: NDM-1 IC50
Sequence of NDM-1 (C7C422 whole entry, looked up, species assumed): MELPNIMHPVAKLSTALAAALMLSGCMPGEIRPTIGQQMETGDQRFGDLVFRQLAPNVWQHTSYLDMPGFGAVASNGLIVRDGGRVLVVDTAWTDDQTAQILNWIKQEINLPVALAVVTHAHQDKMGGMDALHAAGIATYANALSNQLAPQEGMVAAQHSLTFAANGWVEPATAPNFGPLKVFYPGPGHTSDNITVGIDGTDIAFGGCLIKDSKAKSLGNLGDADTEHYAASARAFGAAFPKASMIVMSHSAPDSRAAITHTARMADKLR
Procedure: as §1, §2

IMP-1 = IMP-1 (Serratia marcescens, UniProt P52699); test: biochemical; type: biochemical; settings: fluorescence assay, CCF2-FA substrate, 2 pM enzyme, 2 hours at 25° C.; read-out: IMP-1 IC50
Sequence of IMP-1 (P52699 whole entry, looked up, species assumed): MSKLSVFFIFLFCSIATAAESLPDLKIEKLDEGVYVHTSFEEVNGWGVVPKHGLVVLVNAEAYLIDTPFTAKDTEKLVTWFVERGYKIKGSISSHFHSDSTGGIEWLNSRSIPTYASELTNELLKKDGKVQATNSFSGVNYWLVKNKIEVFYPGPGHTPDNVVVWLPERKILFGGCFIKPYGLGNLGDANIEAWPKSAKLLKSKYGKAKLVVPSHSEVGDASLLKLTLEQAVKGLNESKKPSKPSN
Procedure: as §1, §2

`NCCNS(=O)(=O)c1ccc(-c2cccc3ncccc23)c(-c2nn[nH]n2)c1S(N)(=O)=O` [Example 360, N1-(2-aminoethyl)-4-(quinolin-5-yl)-3-(2H-tetrazol-5-yl)benzene-1,2-disulfonamide] was tested, and the IC50 (VIM-1) was 0.135 nM, the “P. aeruginosa expressing IMP-1, efflux − (MB9799) MITC95” value [1] was 1.563 µM and the “Serratia marcescens MITC95” value [2] was 1.563 µM. The “Escherichia coli MITC95” value [3] was 1.563 µM, the “Klebsiella pneumoniae MITC95” value [4] was 3.125 µM and the “P. aeruginosa expressing IMP-1, efflux + (MB9798) MITC95” value [5] was 1.563 µM.
In the case of `Nc1nc2c(-c3ccc(S(=O)(=O)N[C@@H]4C[C@H]4N)c(S(N)(=O)=O)c3-c3nn[nH]n3)cccc2s1` [Example 388, 4-(2-amino-1,3-benzothiazol-4-yl)-N^1-[(1R,2R)-2-aminocyclopropyl]-3-(2H-tetrazol-5-yl)benzene-1,2-disulfonamide], the IC50 (VIM-1) is reported as 0.375 nM, the IC50 (NDM-1) is reported as 0.0884 nM and the “P. aeruginosa expressing IMP-1, efflux − (MB9799) MITC95” value [1] is reported as 3.125 µM. The “Serratia marcescens MITC95” value [2] was 3.125 µM, the “Escherichia coli MITC95” value [3] was 3.125 µM and the “Klebsiella pneumoniae MITC95” value [4] was 6.25 µM. The “P. aeruginosa expressing IMP-1, efflux + (MB9798) MITC95” value [5] was 1.563 µM.
In the case of `Nc1nc2c(-c3ccc(S(=O)(=O)NCCN4CCC4)c(S(N)(=O)=O)c3-c3nnn[nH]3)cccc2s1` [Example 21, 4-(2-amino-1,3-benzothiazol-4-yl)-N1-(2-azetidin-1-ylethyl)-3-(1H-tetrazol-5-yl)benzene-1,2-disulfonamide], the IC50 (NDM-1) is reported as 0.0642 nM, the IC50 (IMP-1) is reported as 0.383 nM and the “P. aeruginosa expressing IMP-1, efflux − (MB9799) MITC95” value [1] is reported as 1.563 µM. The “Serratia marcescens expressing IMP-1 (CL5741) MITC95” value [2] was 3.125 µM, the “Escherichia coli expressing NDM-1 (CLB30016) MITC95” value [3] was 6.25 µM and the “Klebsiella pneumoniae expressing VIM-1 (IHMA599644) MITC95” value [4] was 6.25 µM. For the same molecule, the “P. aeruginosa expressing IMP-1, efflux + (MB9798) MITC95” value [5] was 1.563 µM.
`NC[C@H](N)CNS(=O)(=O)c1ccc(-c2cccn3ccnc23)c(-c2nn[nH]n2)c1S(N)(=O)=O` [Example 374, (S)-N1-(2,3-diaminopropyl)-4-(imidazo[1,2-a]pyridin-8-yl)-3-(2H-tetrazol-5-yl)benzene-1,2-disulfonamide] was tested, and the IC50 (NDM-1) was 0.157 nM, the IC50 (IMP-1) was 0.278 nM and the “P. aeruginosa expressing IMP-1, efflux − (MB9799) MITC95” value [1] was 1.563 µM. The “Serratia marcescens MITC95” value [2] was 3.125 µM, the “Escherichia coli MITC95” value [3] was 0.7813 µM and the “Klebsiella pneumoniae MITC95” value [4] was 6.25 µM. For the same molecule, the “P. aeruginosa expressing IMP-1, efflux + (MB9798) MITC95” value [5] was 1.563 µM.
In the case of `NCCNS(=O)(=O)c1ccc(-c2cccc(-c3nc[nH]n3)c2)c(-c2nn[nH]n2)c1S(N)(=O)=O` [Example 224, N^4-(2-aminoethyl)-2-(2H-tetrazol-5-yl)-3′-(1H-1,2,4-triazol-3-yl)-[1,1′-biphenyl]-3,4-disulfonamide], the IC50 (NDM-1) is reported as 0.142 nM, the IC50 (IMP-1) is reported as 0.412 nM and the “P. aeruginosa expressing IMP-1, efflux − (MB9799) MITC95” value [1] is reported as 0.7813 µM. The “Serratia marcescens expressing IMP-1 (CL5741) MITC95” value [2] was 1.563 µM, the “Escherichia coli expressing NDM-1 (CLB30016) MITC95” value [3] was 1.563 µM and the “Klebsiella pneumoniae expressing VIM-1 (IHMA599644) MITC95” value [4] was 3.125 µM. The “P. aeruginosa expressing IMP-1, efflux + (MB9798) MITC95” value [5] was 1.563 µM.
`C[C@@H](N)CNS(=O)(=O)c1ccc(-c2ccnc(N)c2)c(-c2nn[nH]n2)c1S(N)(=O)=O` [Example 422] was tested, and the IC50 (NDM-1) was 0.386 nM, the IC50 (IMP-1) was 0.982 nM and the “Concentration of metallo-β-lactamase inhibitor which restores susceptibility of efflux − (MB9799) strain to imipenem” value [1] was 0.7813. The “Serratia marcescens MITC95” value [2] was 0.7813 µM, the “Escherichia coli MITC95” value [3] was 0.3906 µM and the “Klebsiella pneumoniae MITC95” value [4] was 1.563 µM. The “Concentration of metallo-β-lactamase inhibitor which restores susceptibility of efflux + (MB9798) strain to imipenem” value [5] was 1.563.
With `Nc1nc2c(-c3ccc(S(=O)(=O)N[C@H]4CCNC4)c(S(N)(=O)=O)c3-c3nn[nH]n3)cc(F)cc2[nH]1` [Example 399] the IC50 (NDM-1) was 0.0822 nM, the IC50 (IMP-1) was 0.533 nM and the “Concentration of metallo-β-lactamase inhibitor which restores susceptibility of efflux − (MB9799) strain to imipenem” value [1] was 0.7813. The “Serratia marcescens MITC95” value [2] was 1.563 µM, the “Escherichia coli MITC95” value [3] was 0.7813 µM and the “Klebsiella pneumoniae MITC95” value [4] was 1.563 µM. The “Concentration of metallo-β-lactamase inhibitor which restores susceptibility of efflux + (MB9798) strain to imipenem” value [5] was 0.7813.
`NCCNS(=O)(=O)c1ccc(-c2cccc3[nH]c(C4CNC4)nc23)c(-c2nn[nH]n2)c1S(N)(=O)=O` [Example 443, N1-(2-aminoethyl)-4-(2-(azetidin-3-yl)-1H-benzo[d]imidazol-4-yl)-3-(2H-tetrazol-5-yl)benzene-1,2-disulfonamide] was tested, and the IC50 (NDM-1) was 0.0814 nM, the IC50 (IMP-1) was 0.79 nM and the “Concentration of metallo-β-lactamase inhibitor which restores susceptibility of efflux − (MB9799) strain to imipenem” value [1] was 0.7813. The “Serratia marcescens MITC95” value [2] was 1.563 µM, the “Escherichia coli MITC95” value [3] was 0.7813 µM and the “Klebsiella pneumoniae MITC95” value [4] was 1.172 µM. The “Concentration of metallo-β-lactamase inhibitor which restores susceptibility of efflux + (MB9798) strain to imipenem” value [5] was 0.7813.
In the case of `NC[C@@H](O)CNS(=O)(=O)c1ccc(-c2ccnc(N)c2)c(-c2nn[nH]n2)c1S(N)(=O)=O` [Example 419], the IC50 (NDM-1) is reported as 0.496 nM, the IC50 (IMP-1) is reported as 1.51 nM and the “Concentration of metallo-β-lactamase inhibitor which restores susceptibility of efflux − (MB9799) strain to imipenem” value [1] is reported as 0.7813. The “Serratia marcescens MITC95” value [2] was 0.7813 µM, the “Escherichia coli MITC95” value [3] was 0.1953 µM and the “Klebsiella pneumoniae MITC95” value [4] was 1.563 µM. For the same molecule, the “Concentration of metallo-β-lactamase inhibitor which restores susceptibility of efflux + (MB9798) strain to imipenem” value [5] was 1.563.
`C[C@H](CN)NS(=O)(=O)c1ccc(-c2cc(F)cc3[nH]c(N)nc23)c(-c2nn[nH]n2)c1S(N)(=O)=O` [Example 396] was tested, and the IC50 (NDM-1) was 0.0269 nM, the IC50 (IMP-1) was 0.221 nM and the “Concentration of metallo-β-lactamase inhibitor which restores susceptibility of efflux − (MB9799) strain to imipenem” value [1] was 1.563. For the same molecule, the “Serratia marcescens MITC95” value [2] was 0.3906 µM, the “Escherichia coli MITC95” value [3] was 0.7813 µM and the “Klebsiella pneumoniae MITC95” value [4] was 3.125 µM. The “Concentration of metallo-β-lactamase inhibitor which restores susceptibility of efflux + (MB9798) strain to imipenem” value [5] was 0.7813.
In the case of `Nc1nc2c(-c3ccc(S(=O)(=O)NCC4(O)CNC4)c(S(N)(=O)=O)c3-c3nn[nH]n3)cccc2s1` [Example 387, 4-(2-amino-1,3-benzothiazol-4-yl)-N^1-[(3-hydroxyazetidin-3-yl)methyl]-3-(2H-tetrazol-5-yl)benzene-1,2-disulfonamide], the IC50 (NDM-1) is reported as 0.0646 nM, the IC50 (IMP-1) is reported as 0.244 nM and the “P. aeruginosa expressing IMP-1, efflux − (MB9799) MITC95” value [1] is reported as 1.563 µM. The “Serratia marcescens MITC95” value [2] was 1.563 µM, the “Escherichia coli MITC95” value [3] was 1.563 µM and the “Klebsiella pneumoniae MITC95” value [4] was 6.25 µM. The “P. aeruginosa expressing IMP-1, efflux + (MB9798) MITC95” value [5] was 0.7813 µM.

From US10221163B2 (priority 2015, dated 2019)
